Patent US8637237B2, “Methods, compositions, and systems for the identification of species-specific or developmental stage-specific insecticides” (The University of North Carolina at Greensboro, priority 2003, dated 2014)

Columns and labels:
EcRB2/USP = target: T1, EcRB2/USP (Drosophila melanogaster, UniProt P34021); assay: EcRB2 isoform with USP (VP16CfUSP), (EcRE)5-ΔMTV-LUC in CHO cells; type: cell-based
T1 construct: The plasmid encodes a version of EcRB2 that includes 669 amino acids, and deletes the F domain; expressed in transfected cells; host or cells: CHO
T1 sequence (P34021 1-669 isoform P34021-3): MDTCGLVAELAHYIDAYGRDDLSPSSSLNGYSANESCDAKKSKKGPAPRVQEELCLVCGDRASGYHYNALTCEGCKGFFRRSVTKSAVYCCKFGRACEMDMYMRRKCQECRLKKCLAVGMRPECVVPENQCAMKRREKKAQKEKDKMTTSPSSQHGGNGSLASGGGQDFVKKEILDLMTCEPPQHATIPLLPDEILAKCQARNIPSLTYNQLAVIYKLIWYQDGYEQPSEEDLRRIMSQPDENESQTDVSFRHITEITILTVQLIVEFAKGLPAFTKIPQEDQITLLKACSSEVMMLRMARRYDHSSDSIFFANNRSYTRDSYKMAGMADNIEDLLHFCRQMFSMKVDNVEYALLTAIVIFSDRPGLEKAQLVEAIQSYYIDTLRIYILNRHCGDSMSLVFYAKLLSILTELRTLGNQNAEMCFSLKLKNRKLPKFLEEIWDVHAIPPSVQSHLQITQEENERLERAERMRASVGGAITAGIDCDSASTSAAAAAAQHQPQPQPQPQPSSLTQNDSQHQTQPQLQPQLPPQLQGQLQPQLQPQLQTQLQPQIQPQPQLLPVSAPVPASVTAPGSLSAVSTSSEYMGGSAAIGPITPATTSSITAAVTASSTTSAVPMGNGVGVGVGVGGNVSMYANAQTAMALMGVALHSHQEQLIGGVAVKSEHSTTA
T1 sequence (O76202 192-472 partner): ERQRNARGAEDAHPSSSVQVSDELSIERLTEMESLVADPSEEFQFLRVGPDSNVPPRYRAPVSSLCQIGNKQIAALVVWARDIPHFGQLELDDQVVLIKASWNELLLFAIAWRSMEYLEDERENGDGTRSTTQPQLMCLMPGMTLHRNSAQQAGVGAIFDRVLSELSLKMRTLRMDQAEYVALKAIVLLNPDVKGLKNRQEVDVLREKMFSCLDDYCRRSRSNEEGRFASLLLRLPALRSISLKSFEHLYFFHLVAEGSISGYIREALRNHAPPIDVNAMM
Experimental: (§1) These experiments employed a mammalian cell culture system using Chinese hamster ovary cells (CHO) to evaluate the transcriptional function of Drosophila melanogaster EcR and USP using methods described previously (U.S. Patent Application Publication No: 2005/0049230; Henrich et al, 2003). Cells were seeded in 6-well polypropylene culture plates (Falcon) with 10^5 cells per well on the day prior to transfection. Transfection was subsequently performed using either calcium phosphate (Kitareewan et al., 1996, Mol. Biol. Cell, 7:1153-1196) or a GenePorter reagent (Gene Therapy Systems, Inc; San Diego, Calif.) following manufacturer's protocols. Each well received 1.25 μg of (EcRE)5-ΔMTV-CAT (five copies of the hsp27 EcRE inserted into an mouse mammary tumor virus (MTV) promoter upstream of the chloramphenicol acetyltransferase (CAT) gene) or (EcRE)5-ΔMTV-LUC (the same promoter attached to firefly luciferase), 1.25 μg of pCH111 (SV40 early promoter linked to the β-galactosidase gene) to normalize CAT activity, and 0.25 μg of each expression plasmid (EcR, FXR, RXR, USP) that was tested. The cells were incubated with plasmid DNA for seven hours and then washed with 1×PBS. Muristerone A (murA; Alexis Biochemicals) or 20-hydroxyecdysone (20E; Sigma) dissolved in ethanol to a concentration of 10 mM was diluted as necessary to the final assay concentration (FAC) in 2 ml of fresh incubation medium that was then applied to the cells. Similarly, JHIII (Sigma) was dissolved in dimethyl sulfoxide (DMSO) to a concentration of […] and diluted into the incubation medium to its final assay concentration (20, 40, 80, 160 μM). […] A corresponding volume of ethanol and DMSO were added to control cells for all experiments. For all experiments, the cells were allowed to incubate with the medium for 24 hours before collection and cell lysates were prepared by described methods (Kitareewan et al., 1996). Both β-galactosidase and CAT reporter activity were measured based on previously used methods (Kitareewan et al, 1996). Luciferase assays using luciferrin followed the specifications of the manufacturer.
(§2) Transcriptional activity, measured as ^14C-chloramphenicol counts (for measuring CAT activity) or relative luciferase activity (RLU) was quantified for each cell lysate. The counts were then normalized by adjusting for differences in β-galactosidase activity, since β-galactosidase expression is controlled by a constitutive promoter and provides an estimate of cell mass. Data were normalized as fold-induction based on differences in reporter gene activity between hormonally treated and control cells.

EcRA/USP = target: T2, EcRA/USP (Drosophila melanogaster, UniProt P34021); assay: EcRA isoform with USP (VP16CfUSP), (EcRE)5-ΔMTV-LUC in CHO cells; type: cell-based
T2 construct: The plasmid encodes a version of EcRA that includes 849 amino acids, and deletes the F domain; expressed in transfected cells; host or cells: CHO
T2 sequence (P34021 1-849 isoform P34021-2): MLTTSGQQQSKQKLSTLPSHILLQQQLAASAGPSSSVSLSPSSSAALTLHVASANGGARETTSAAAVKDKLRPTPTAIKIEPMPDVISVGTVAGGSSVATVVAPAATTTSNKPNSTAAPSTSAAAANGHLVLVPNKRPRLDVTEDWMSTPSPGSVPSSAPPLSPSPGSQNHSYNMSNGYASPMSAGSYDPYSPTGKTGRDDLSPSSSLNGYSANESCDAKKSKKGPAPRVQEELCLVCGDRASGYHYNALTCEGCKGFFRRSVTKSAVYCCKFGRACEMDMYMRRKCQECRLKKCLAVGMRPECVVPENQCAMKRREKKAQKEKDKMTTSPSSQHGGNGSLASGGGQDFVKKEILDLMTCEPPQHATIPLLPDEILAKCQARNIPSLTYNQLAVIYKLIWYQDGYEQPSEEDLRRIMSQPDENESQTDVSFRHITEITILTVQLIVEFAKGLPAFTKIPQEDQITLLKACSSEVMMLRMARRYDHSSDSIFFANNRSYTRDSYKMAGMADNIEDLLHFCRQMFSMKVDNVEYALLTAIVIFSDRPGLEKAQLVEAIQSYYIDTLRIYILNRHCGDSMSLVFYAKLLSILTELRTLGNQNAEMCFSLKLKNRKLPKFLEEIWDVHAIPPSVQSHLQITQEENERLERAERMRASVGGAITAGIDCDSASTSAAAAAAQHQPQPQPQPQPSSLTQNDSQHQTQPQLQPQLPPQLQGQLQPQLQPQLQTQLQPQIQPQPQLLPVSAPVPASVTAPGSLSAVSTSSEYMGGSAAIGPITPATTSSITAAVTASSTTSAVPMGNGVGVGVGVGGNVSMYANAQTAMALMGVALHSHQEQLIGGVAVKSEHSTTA
T2 sequence (O76202 192-472 partner): T1 sequence (O76202 192-472 partner)
Experimental: as §1, §2

With `CC(C)(O)CC[C@@H](O)[C@](C)(O)[C@H]1CC[C@@]2(O)C3=CC(=O)[C@@H]4C[C@@H](O)[C@@H](O)C[C@]4(C)[C@H]3CC[C@]12C` [20E, 20-hydroxyecdysone] as the molecule, how does the “transcriptional response to 20E” value (EcRB2/USP; EcRB2 + VP16CfUSP, 10 μM 20E) read?
The value was “consistent and discernible transcriptional response”.

And the “20E (inducibility)” value (EcRB2/USP; EcRB2/USP, 10 μM 20E)?
The value was “+ ((+) designates a change in transcriptional level that exceeds 2.5-fold)”.

And the “transcriptional response to 20E” value (EcRA/USP; EcRA + VP16CfUSP, 10 μM 20E)?
The value was “consistent and discernible transcriptional response”.

What about the “20E (inducibility)” value (EcRA/USP; EcRA/USP, 10 μM 20E) of the same molecule?
The value was “+ ((+) designates a change in transcriptional level that exceeds 2.5-fold)”.

Which results are given for `COC(=O)/C=C(\C)CC/C=C(\C)CC[C@H]1OC1(C)C` [JHIII, juvenile hormone III]?
potentiation of 20E response by JHIII (EcRB2/USP; EcRB2 + VP16CfUSP, 10 μM 20E plus JHIII): potentiated significantly; potentiation of murA response by JHIII (EcRB2/USP; EcRB2 + VP16CfUSP, 80 μM JHIII with 0.1 μM murA): potentiated; MurA + JHIII (JHIII potentiation) (EcRB2/USP; EcRB2/USP, 0.1 μM murA + 80 μM JHIII): + ((+) indicates observed potentiation that exceeds 2-fold above the levels observed with ecdysteroid alone); 20E + JHIII (JHIII potentiation) (EcRB2/USP; EcRB2/USP, 10 μM 20E + 80 μM JHIII): + ((+) indicates observed potentiation that exceeds 2-fold above the levels observed with ecdysteroid alone); potentiation of murA response by JHIII (EcRA/USP; EcRA + VP16CfUSP, 80 μM JHIII with 0.1 μM murA): potentiated; MurA + JHIII (JHIII potentiation) (EcRA/USP; EcRA/USP, 0.1 μM murA + 80 μM JHIII): + ((+) indicates observed potentiation that exceeds 2-fold above the levels observed with ecdysteroid alone)

With `CC(C)CC[C@@H](O)[C@](C)(O)[C@H]1CC[C@@]2(O)C3=CC(=O)[C@]4(O)C[C@@H](O)[C@@H](O)C[C@]4(C)[C@H]3[C@H](O)C[C@]12C` [murA, muristerone A] as the molecule, how does the “induction by murA” value (EcRB2/USP; EcRB2 + VP16CfUSP, 1 μM murA) read?
The value was 30-40 fold.

And the “MurA (inducibility)” value (EcRB2/USP; EcRB2/USP, 0.1 μM murA)?
Its value is “+ ((+) designates a change in transcriptional level that exceeds 2.5-fold)”.

What about the “induction by murA” value (EcRA/USP; EcRA + VP16CfUSP, 1 μM murA) of the same molecule?
The value was 30-40 fold.

And the “MurA (inducibility)” value (EcRA/USP; EcRA/USP, 0.1 μM murA)?
Its value is “+ ((+) designates a change in transcriptional level that exceeds 2.5-fold)”.
